Data set [1] has as its system pituitary adenoma cells. The data set can be described thus: Cell proliferation: CELLTITER 96 Aqueous (MTS/PMS) assay, number of viable cells. The class given is cell-based. Particulars: 10^-9 M, 48 hours incubation, medium with 10% FBS, absorbance at 490 nm. Here is the method:
The effects of SSTR selective agonists on pituitary adenoma cell proliferation were assessed by the CELLTITER 96 Aqueous Non-Radioactive Cell Proliferation Assay (Promega, Milano, Italy), a colorimetric method for determining the number of viable cells in proliferation assays. The assay contains solutions of a tetrazolium compound (Owen's reagent; MTS) and an electron coupling reagent (phenazine methosulphate; PMS). MTS is bioreduced by cells into a formazan that is soluble in tissue culture medium. The absorbance of the formazan at 490 nm can be measured directly from 96 well assay plates (Zatelli M C, et al., 2000 J Clin Endocrinol Metab 85: 847-852; Cory A H, et al., 1991 Cancer Commun 3: 207-212). The conversion of MTS into the aqueous soluble formazan is accomplished by dehydrogenase enzymes found in metabolically active cells. The quantity of formazan product as measured by the amount of 490 nm absorbance is directly proportional to the number of living cells in culture.
Briefly, adenoma cells were plated in 96-multiwell plates (2×10^4 cells/well) and incubated for 48 hours in a medium supplemented with 10% FBS in the presence or absence of each SRIF analogue (including in one instance, compounds 2 & 3 together) at a concentration of 10^−9 M. Treatments were renewed by adding fresh analogues to the wells after the first 24 hours of incubation. At the end of the incubation period, 20 μl of a combined MTS/PMS solution was added to each well with a repeating pipette, and the plates were incubated for an additional 4 hours at 37° C. in a humidified 5% CO2 atmosphere. The absorbance at 490 nm was then recorded using an ELISA plate reader (EASIA Reader, Medgenix). Results (absorbance at 490 nm) were obtained by determining the mean value of at least six experiments in eight replicates.

Data set [2] has as its system pituitary adenoma cells. As to the kind of experiment: DNA synthesis: [3H]thymidine incorporation in pituitary adenoma cells. As to conditions: 10^-9 M, 48 h incubation, medium with 10% FBS, pituitary cells from functioning adenomas. It is filed as cell-based. Here is the method:
The effects of SSTR selective agonists and antagonists on pituitary adenoma cell DNA synthesis were assessed by determining the rate of [^3H]thymidine incorporation, as previously described (Davis L, et al., 1994 In: Basic methods in Molecular Biology, 2nd edition, Appleton & Lange, Norwalk, Conn., USA: 611-646, degli Uberti E C, et al., 1991 J Clin Endocrinol Metab 72: 1364-1371).
Approximately 10^5 pituitary cells from two functioning adenomas were plated in quadruplicate wells the day of surgery and treated the day after with SRIF and with Compounds 1, 2, 3, and LANREOTIDE at 10^−9M. After 48 h incubation in a medium supplemented with 10% FBS in the presence of [^3H]thy (1.5 μCi/mL; 87 Ci/mmol) with or without each SRIF analogue. Treatments were renewed by adding fresh analogues to the wells after the first 24 h of incubation, without removing the medium.
After incubation, the cells were washed three times with ice-cold PBS and twice with 10% ice-cold trichloroacetic acid (TCA). TCA-precipitated material was solubilized in 500 μL 0.2 mol/L sodium hydroxide and 0.1% SDS. Cell-associated radioactivity was then counted in a scintillation spectrometer. Results (counts per min per well) were obtained by determining the mean value of at least six experiments in quadruplicate. The viability of cells in control and treated cultures was evaluated by Trypan blue staining.
(In general: Uptake of a labelled nucleoside into DNA is a usual measure of proliferation.)

Where a SMILES comes first, the peptide text is derived from it. Bridges are numbered along the chain shown (N, C = ends). [ ]: non-standard residue; d: D form. The star is where a group is joined. Gly(N-2-aminoethyl) = NCCNCC(=O)O; 3Pal = N[C@@H](Cc1cccnc1)C(=O)O; Tic = O=C(O)[C@@H]1Cc2ccccc2CN1; X1 = Nc1ccn(CC(=O)*)c(=O)n1; Abu = CC[C@H](N)C(=O)O; Bn = c1ccc(C*)cc1

For the compound `C[C@@H](OCc1ccccc1)[C@H](NC(=O)[C@H]1CSSC[C@@H](NC(=O)CN(CCN)C(=O)Cn2ccc(N)nc2=O)C(=O)N[C@@H](Cc2cccnc2)C(=O)N[C@H](Cc2c[nH]c3ccccc23)C(=O)N[C@@H](CCCCN)C(=O)N1)C(=O)N[C@@H](Cc1ccc(O)cc1)C(N)=O` [Compound 1, Caeg-c(D-Cys-Pal-D-Trp-Lys-D-Cys)-Thr(Bzl)-Tyr-NH2] (X1-[Gly(N-2-aminoethyl)][dC][3Pal][dW]K[dC]T(Bn)Y-NH2; disulfide 2-6), in the data set with pituitary adenoma cells [1], the “% Reduction Viable Cells” value is 28.5%.
In the case of `CC[C@@H]1NC(=O)[C@H](CCCCN)NC(=O)[C@@H](Cc2c[nH]c3ccccc23)NC(=O)[C@H](Cc2ccc(O)cc2)NC(=O)[C@@H]2Cc3ccccc3CN2C(=O)[C@H](Cc2ccccc2)NC1=O` [Compound 2, cyclo[Tic-Tyr-D-Trp-Lys-Abu-Phe]] (cyclo([Tic]Y[dW]K[Abu]F)), the “% Reduction [3H]Thymidine” value with pituitary adenoma cells [2] was 25. %. Further, in the data set on pituitary adenoma cells [1], the “% Reduction Viable Cells” value was 12.5%.
As to `C[C@@H](O)[C@H](NC(=O)[C@H](Cc1ccccc1)NC(=O)[C@@H](NC(=O)[C@H](CCCCN)NC(=O)[C@@H](Cc1c[nH]c2ccccc12)NC(=O)[C@H](Cc1c[nH]c2ccccc12)NC(=O)[C@H](Cc1ccccc1)NC(=O)[C@H](N)Cc1ccccc1)[C@@H](C)O)C(N)=O` [Compound 3, D-Phe-Phe-Trp-D-Trp-Lys-Thr-Phe-Thr-NH2], the “% Reduction [3H]Thymidine” value in the data set on pituitary adenoma cells [2] is listed as 15.5%.
Take `CC(C)[C@@H]1NC(=O)[C@H](CCCCN)NC(=O)[C@@H](Cc2c[nH]c3ccccc23)NC(=O)[C@H](Cc2ccc(O)cc2)NC(=O)[C@@H](NC(=O)[C@H](N)Cc2ccc3ccccc3c2)CSSC[C@@H](C(=O)N[C@H](C(N)=O)[C@@H](C)O)NC1=O` [LANREOTIDE, D-Nal-cyclo[Cys-Tyr-D-Trp-Lys-Val-Cys]-Thr-NH2, reference compound]: in the data set with pituitary adenoma cells [2], the “% Reduction [3H]Thymidine” value is listed as 25. %. In the data set with pituitary adenoma cells [1], the “% Reduction Viable Cells” value was 12. %.
As for `C[C@H](N)C(=O)NCC(=O)N[C@H]1CSSC[C@@H](C(=O)O)NC(=O)[C@H](CO)NC(=O)[C@H]([C@@H](C)O)NC(=O)[C@H](Cc2ccccc2)NC(=O)[C@H]([C@@H](C)O)NC(=O)[C@H](CCCCN)NC(=O)[C@H](Cc2c[nH]c3ccccc23)NC(=O)[C@H](Cc2ccccc2)NC(=O)[C@H](Cc2ccccc2)NC(=O)[C@H](CC(N)=O)NC(=O)[C@H](CCCCN)NC1=O` [SRIF, reference compound], the “% Reduction Viable Cells” value in the data set on pituitary adenoma cells [1] came out at 8. %.

For the origin of these results see US20040198653A1, “Pharmaceutical compositions which inhibit proliferation of pituitary adenomas and method of use thereof” (priority 2001, published 2004).
